Measured values reported in patent US20260274892A1, “MACROCYCLIC BROAD SPECTRUM ANTIBIOTICS” (RQx Pharmaceuticals, Inc., priority 2017, published 2026).

Tested on: Escherichia coli ATCC 25922
Experiment: Minimum inhibitory concentration (MIC), CLSI broth micro-dilution, E. coli
Format: cell-based
Settings: Escherichia coli
Procedure, shortened: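 Antibacterial potency is measured as MIC by the CLSI broth dilution method. Bacteria at OD600 0.0005 in Tween-80-supplemented cation-adjusted Mueller Hinton broth face ten twofold compound dilutions for 22 h at 35° C.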

[1] = ATCC25922, 22 h, Table 6, cation adjusted Mueller Hinton Broth + 0.002% Tween-80, 35° C.
[2] = ATCC25922, 22 h, Table 7, cation adjusted Mueller Hinton Broth + 0.002% Tween-80, 35° C.
[3] = ATCC25922, Table 6, cation adjusted Mueller Hinton Broth + 0.002% Tween-80, 35° C., 22 hours

| Compound | MIC [2] [µM] | MIC [1] [µM] | also measured |
| --- | --- | --- | --- |
| C[C@@H]1NC(=O)[C@@H](N(C)C(=O)[C@H](CCN)NC(=O)c2c(N)cc(-c3ccc(C(C)(C)C)cc3)nc2Cl)c2ccc(OCCN)c(c2)-c2cc(ccc2OCCN)C[C@@H](C(=O)NCC#N)NC1=O (racemic) [Compound 554, rac-(8S,11S,14S)-3,18-bis(2-aminoethoxy)-N-(cyanomethyl)-11-methyl-14-[methyl-[rac-(2S)-4-amino-2-[[4-amino-6-(4-tert-butylphenyl)-2-chloro-pyridine-3-carbonyl]amino]butanoyl]amino]-10,13-dioxo-9,12-diazatricyclo[13.3.1.12,6]icosa-1(18),2(20),3,5,15(19),16-hexaene-8-carboxamide] | – | 0.094 | – |
| CC(C)Cc1ccc(-c2ncc(C(=O)N[C@@H](CCN)C(=O)N(C)[C@@H]3C(=O)N[C@@H](C)C(=O)N[C@H](C(=O)NCC#N)Cc4ccc(OCCN)c(c4)-c4cc3ccc4OCCN)c(C(F)F)n2)cc1 (racemic) [Compound 418, rac-(8S,11S,14S)-3,18-bis(2-aminoethoxy)-N-(cyanomethyl)-11-methyl-14-[methyl-[rac-(2S)-4-amino-2-[[4-(difluoromethyl)-2-(4-isobutylphenyl)pyrimidine-5-carbonyl]amino]butanoyl]amino]-10,13-dioxo-9,12-diazatricyclo[13.3.1.12,6]icosa-1(18),2(20),3,5,15(19),16-hexaene-8-carboxamide] | – | – | MIC [3]: 0.064 µM |
| COc1c(OC[C@H](O)CN)cc2cc1-c1cc(ccc1OC[C@H](O)CN)C[C@@H](C(=O)NCC#N)NC(=O)[C@H](C)NC(=O)[C@H]2N(C)C(=O)[C@H](CCN)NC(=O)c1c(C)nc(-c2ccc(C(C)(C)C)cc2)nc1C (racemic) [Compound 586, rac-(8S,11S,14S)-N-(cyanomethyl)-18-methoxy-11-methyl-14-[methyl-[rac-(2S)-4-amino-2-[[2-(4-tert-butylphenyl)-4,6-dimethyl-pyrimidine-5-carbonyl]amino]butanoyl]amino]-10,13-dioxo-3,17-bis[rac-(2R)-3-amino-2-hydroxy-propoxy]-9,12-diazatricyclo[13.3.1.12,6]icosa-1(18),2(20),3,5,15(19),16-hexaene-8-carboxamide] | 0.19 | – | – |
| Cc1nc(-c2ccc(C(C)(C)C)cc2)nc(C)c1C(=O)N[C@@H](CCN)C(=O)N(C)[C@@H]1C(=O)N[C@@H](C)C(=O)N[C@H](C(=O)NCC#N)Cc2ccc(O)c(c2)-c2cc1ccc2OC1CNC1 (racemic) [Compound 604, rac-(8S,11S,14S)-18-(azetidin-3-yloxy)-N-(cyanomethyl)-3-hydroxy-11-methyl-14-[methyl-[rac-(2S)-4-amino-2-[[2-(4-tert-butylphenyl)-4,6-dimethyl-pyrimidine-5-carbonyl]amino]butanoyl]amino]-10,13-dioxo-9,12-diazatricyclo[13.3.1.12,6]icosa-1(18),2(20),3,5,15(19),16-hexaene-8-carboxamide] | 0.75 | – | – |
| Cc1nc(-c2ccc(C(C)(C)C)cc2)ncc1C(=O)N[C@@H](CCNC=O)C(=O)N(C)[C@@H]1C(=O)N[C@@H](C)C(=O)N[C@H](C(=O)NCC#N)Cc2ccc(OCCN)c(c2)-c2cc1ccc2OCCN (racemic) [Compound 494, rac-(8S,11S,14S)-3,18-bis(2-aminoethoxy)-N-(cyanomethyl)-11-methyl-14-[methyl-[rac-(2S)-2-[[2-(4-tert-butylphenyl)-4-methyl-pyrimidine-5-carbonyl]amino]-4-formamido-butanoyl]amino]-10,13-dioxo-9,12-diazatricyclo[13.3.1.12,6]icosa-1(18),2(20),3,5,15(19),16-hexaene-8-carboxamide] | – | – | MIC [3]: 1.1 µM |
| Cc1nc(-c2ccc(OCCC(C)(C)C)cc2)cc(N)c1C(=O)N[C@@H](CCN)C(=O)N(C)[C@@H]1C(=O)N[C@@H](C)C(=O)N[C@H](C(=O)NCC#N)Cc2ccc(OCCN)c(c2)-c2cc1ccc2OCCN (racemic) [Compound 538, rac-(8S,11S,14S)-3,18-bis(2-aminoethoxy)-N-(cyanomethyl)-11-methyl-14-[methyl-[rac-(2S)-4-amino-2-[[4-amino-6-[4-(3,3-dimethylbutoxy)phenyl]-2-methyl-pyridine-3-carbonyl]amino]butanoyl]amino]-10,13-dioxo-9,12-diazatricyclo[13.3.1.12,6]icosa-1(18),2(20),3,5,15(19),16-hexaene-8-carboxamide] | – | 0.063 | – |
| CC(=N)NCCOc1ccc2cc1-c1cc(ccc1O)C[C@@H](C(=O)NCC#N)NC(=O)[C@H](C)NC(=O)[C@H]2N(C)C(=O)[C@H](CCN)NC(=O)c1c(C)nc(-c2ccc(C(C)(C)C)cc2)nc1C (racemic) [Compound 603, rac-(8S,11S,14S)-N-(cyanomethyl)-18-[2-(ethanimidoylamino)ethoxy]-3-hydroxy-11-methyl-14-[methyl-[rac-(2S)-4-amino-2-[[2-(4-tert-butylphenyl)-4,6-dimethyl-pyrimidine-5-carbonyl]amino]butanoyl]amino]-10,13-dioxo-9,12-diazatricyclo[13.3.1.12,6]icosa-1(18),2(20),3,5,15(19),16-hexaene-8-carboxamide] | – | – | MIC (ATCC25922, Table 7, cation adjusted Mueller Hinton Broth + 0.002% Tween-80, 35° C., 22 hours): 0.44 µM |
| Cc1nc(-c2ccc(N3C[C@H](C)C[C@H](C)C3)cc2)nc(C)c1C(=O)N[C@@H](CCN)C(=O)N(C)[C@@H]1C(=O)N[C@@H](C)C(=O)N[C@H](C(=O)NCC#N)Cc2ccc(OCCN)c(c2)-c2cc1ccc2OCCN (racemic) [Compound 327, rac-(8S,11S,14S)-3,18-bis(2-aminoethoxy)-N-(cyanomethyl)-11-methyl-14-[methyl-[rac-(2S)-4-amino-2-[[4,6-dimethyl-2-[4-[rac (3S,5R)-3,5-dimethyl-1-piperidyl]phenyl]pyrimidine-5-carbonyl]amino]butanoyl]amino]-10,13-dioxo-9,12-diazatricyclo[13.3.1.12,6]icosa-1(18),2(20),3,5,15(19),16-hexaene-8-carboxamide] | – | 0.13 | – |
| Cc1nc(-c2ccc(OC3CCCCCC3)cc2)cc(N)c1C(=O)N[C@@H](CCN)C(=O)N(C)[C@@H]1C(=O)N[C@@H](C)C(=O)N[C@H](C(=O)NCC#N)Cc2ccc(OCCN)c(c2)-c2cc1ccc2OCCN (racemic) [Compound 545, rac-(8S,11S,14S)-3,18-bis(2-aminoethoxy)-N-(cyanomethyl)-11-methyl-14-[methyl-[rac-(2S)-4-amino-2-[[4-amino-6-[4-(cycloheptoxy)phenyl]-2-methyl-pyridine-3-carbonyl]amino]butanoyl]amino]-10,13-dioxo-9,12-diazatricyclo[13.3.1.12,6]icosa-1(18),2(20),3,5,15(19),16-hexaene-8-carboxamide] | – | 1 | – |

The next lines start with results.

| MIC [2] [µM] | Compound | MIC [1] [µM] | also measured |
| --- | --- | --- | --- |
| 0.38 | CC(=O)Nc1cc2cc(c1O)-c1cc(ccc1OCCN)[C@H](N(C)C(=O)[C@H](CCN)NC(=O)c1c(C)nc(-c3ccc(C(C)(C)C)cc3)nc1C)C(=O)N[C@@H](C)C(=O)N[C@H](C(=O)NCC#N)C2 [Compound 559, (4S,7S,10S)-2^5-acetamido-10-((S)-4-amino-2-(2-(4-(tert-butyl)phenyl)-4,6-dimethylpyrimidine-5-carboxamido)-N-methylbutanamido)-1^6-(2-aminoethoxy)-N-(cyanomethyl)-2^6-hydroxy-7-methyl-6,9-dioxo-5,8-diaza-1,2(1,3)-dibenzenacyclodecaphane-4-carboxamide] | – | – |
| 0.58 | Cc1nc(-c2ccc(C(C)(C)C)cc2)nc(C)c1C(=O)N[C@@H](CCNS(N)(=O)=O)C(=O)N(C)[C@@H]1C(=O)N[C@@H](C)C(=O)N[C@H](C(=O)NCC#N)Cc2ccc(OC[C@H](O)CN)c(c2)-c2cc1ccc2OC[C@H](O)CN (racemic) [Compound 580, rac-(8S,11S,14S)-N-(cyanomethyl)-11-methyl-14-[methyl-[rac-(2S)-2-[[2-(4-tert-butylphenyl)-4,6-dimethyl-pyrimidine-5-carbonyl]amino]-4-(sulfamoylamino)butanoyl]amino]-10,13-dioxo-3,18-bis[rac-(2R)-3-amino-2-hydroxy-propoxy]-9,12-diazatricyclo[13.3.1.12,6]icosa-1(18),2(20),3,5,15(19),16-hexaene-8-carboxamide] | – | – |
| 0.31 | Cc1nc(-c2ccc(C(C)(C)C)cc2)nc(C)c1C(=O)N[C@@H](CNS(N)(=O)=O)C(=O)N(C)[C@@H]1C(=O)N[C@@H](C)C(=O)N[C@H](C(=O)NCC#N)Cc2ccc(OCCCN)c(c2)-c2cc1ccc2OCCCN (racemic) [Compound 575, rac-(8S,11S,14S)-3,18-bis(3-aminopropoxy)-N-(cyanomethyl)-11-methyl-14-[methyl-[rac-(2S)-2-[[2-(4-tert-butylphenyl)-4,6-dimethyl-pyrimidine-5-carbonyl]amino]-3-(sulfamoylamino)propanoyl]amino]-10,13-dioxo-9,12-diazatricyclo[13.3.1.12,6]icosa-1(18),2(20),3,5,15(19),16-hexaene-8-carboxamide] | – | – |
| 0.28 | Cc1nc(-c2ccc(C(C)(C)C)cc2)nc(C)c1C(=O)N[C@@H](CNS(N)(=O)=O)C(=O)N(C)[C@@H]1C(=O)N[C@@H](C)C(=O)N[C@H](C(=O)NCC#N)Cc2ccc(OCCN)c(c2)-c2cc1ccc2OCCN (racemic) [Compound 572, rac-(8S,11S,14S)-3,18-bis(2-aminoethoxy)-N-(cyanomethyl)-11-methyl-14-[methyl-[rac-(2S)-2-[[2-(4-tert-butylphenyl)-4,6-dimethyl-pyrimidine-5-carbonyl]amino]-3-(sulfamoylamino)propanoyl]amino]-10,13-dioxo-9,12-diazatricyclo[13.3.1.12,6]icosa-1(18),2(20),3,5,15(19),16-hexaene-8-carboxamide] | – | – |
